# Test results taken from ChEMBL document CHEMBL1201862, “PubChem BioAssay data set” (2004).
#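 The compound was tested at five concentrations on cells cultured in 96-well plates, with a 48-hour exposure period. GI50: concentration for 50% inhibition of growth.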 Calls of active or inactive are those of the source. No stated cut-off is given here; in the data, active = GI50 up to about 1.1 µM and inactive = higher.
# Key:
# Experiment in all cases: DTP human tumour cell line panel, 48 h
# [1] = tested on: 786-0
# [2] = tested on: NCI-H460
# [3] = tested on: CAKI-1
# [4] = tested on: HL-60
# [5] = tested on: IGROV-1
# [6] = tested on: UACC-62
# [7] = tested on: SF-268
# [8] = tested on: ACHN
# [9] = tested on: COLO 205
# [10] = tested on: SK-MEL-2
# [11] = tested on: RXF 631
# [12] = tested on: SF-295
# [13] = tested on: K562
# [14] = tested on: HCC 2998
# [15] = tested on: LOX IMVI
# [16] = tested on: SK-MEL-28
# [17] = tested on: HOP-92
# [18] = tested on: A549
# [19] = tested on: OVCAR-8
# [20] = tested on: M14
# [21] = tested on: HT-29
# [22] = tested on: NCI-H23
# [23] = tested on: KM-20L2
# [24] = tested on: SNB-78
# [25] = tested on: OVCAR-5
# [26] = tested on: Malme-3M
# [27] = tested on: SK-MEL-5
# [28] = tested on: A498
# [29] = tested on: OVCAR-4
# [30] = tested on: OVCAR-3
# [31] = tested on: DMS-114
# [32] = tested on: XF498
# [33] = tested on: RPMI-8226
# [34] = tested on: SR
# [35] = tested on: UACC-257
# [36] = tested on: CCRF-CEM
# [37] = tested on: U-251
# [38] = tested on: SK-OV-3
# [39] = tested on: RXF 393
# [40] = tested on: SNB-75
# [41] = tested on: KM12
# [42] = tested on: MOLT-4
# [43] = tested on: M19-MEL
# [44] = tested on: HCT-116
# [45] = tested on: HCT-15
# [46] = tested on: LXFL 529
# [47] = tested on: NCI-H522
# [48] = tested on: UO-31
# [49] = tested on: DLD-1
# [50] = tested on: SN12C
# [51] = tested on: HOP-62
# [52] = tested on: NCI-H226
# [53] = tested on: SF-539
# [54] = tested on: SNB-19
# [55] = tested on: SW-620
# [56] = tested on: TK-10
# [57] = tested on: DMS-273
# [58] = tested on: EKVX
structure (smiles),measurement,setting,value
NCCOc1ccc(/C(=C(/Cl)c2ccccc2)c2ccccc2)cc1,GI50,[1],7.94 µM (inactive)
same,GI50,[2],7.14 µM (inactive)
same,GI50,[3],8.34 µM (inactive)
same,GI50,[4],3.74 µM (inactive)
same,GI50,[5],14.4 µM (inactive)
same,GI50,[6],11 µM (inactive)
same,GI50,[7],13.2 µM (inactive)
same,GI50,[8],14 µM (inactive)
same,GI50,[9],1.89 µM (inactive)
same,GI50,[10],14.4 µM (inactive)
same,GI50,[11],11.4 µM (inactive)
same,GI50,[12],14.4 µM (inactive)
same,GI50,[13],3.32 µM (inactive)
same,GI50,[14],4.34 µM (inactive)
same,GI50,[15],4.05 µM (inactive)
same,GI50,[16],5.66 µM (inactive)
same,GI50,[17],5.18 µM (inactive)
same,GI50,[18],16 µM (inactive)
same,GI50,[19],14 µM (inactive)
same,GI50,[20],2.26 µM (inactive)
same,GI50,[21],3.14 µM (inactive)
same,GI50,[22],16 µM (inactive)
same,GI50,[23],6.62 µM (inactive)
same,GI50,[24],10 µM (inactive)
same,GI50,[25],16.7 µM (inactive)
same,GI50,[26],9.27 µM (inactive)
same,GI50,[27],9.1 µM (inactive)
same,GI50,[28],19.1 µM (inactive)
same,GI50,[29],13 µM (inactive)
same,GI50,[30],12.4 µM (inactive)
same,GI50,[31],12.9 µM (inactive)
same,GI50,[32],5.6 µM (inactive)
same,GI50,[33],3.17 µM (inactive)
same,GI50,[34],3.21 µM (inactive)
same,GI50,[35],10.8 µM (inactive)
same,GI50,[36],7.11 µM (inactive)
same,GI50,[37],10.9 µM (inactive)
same,GI50,[38],16.9 µM (inactive)
same,GI50,[39],4.03 µM (inactive)
same,GI50,[40],11.4 µM (inactive)
same,GI50,[41],5.18 µM (inactive)
same,GI50,[42],3.14 µM (inactive)
same,GI50,[43],10.7 µM (inactive)
same,GI50,[44],7.19 µM (inactive)
same,GI50,[45],6.55 µM
same,GI50,[46],7.1 µM (inactive)
same,GI50,[47],12.4 µM (inactive)
same,GI50,[48],9.16 µM (inactive)
same,GI50,[49],15.6 µM (inactive)
same,GI50,[50],9.66 µM (inactive)
same,GI50,[51],17.9 µM (inactive)
same,GI50,[52],18.7 µM (inactive)
same,GI50,[53],15.3 µM (inactive)
same,GI50,[54],14.4 µM (inactive)
same,GI50,[55],4.19 µM (inactive)
same,GI50,[56],12.9 µM (inactive)
same,GI50,[57],10.6 µM (inactive)
same,GI50,[58],15.1 µM (inactive)
